These results are taken from US20240131032A1, “AN ACTIVITY-GUIDED MAP OF ELECTROPHILE-CYSTEINE INTERACTIONS IN PRIMARY HUMAN IMMUNE CELLS” (The Scripps Research Institute, priority 2019, published 2024).

The subject of test [1] is CRISPR/Cas9-edited primary human T cells. Kind of test: T cell activation after CRISPR/Cas9 target disruption plus compound (FACS CD25/CD69). In kind it is cell-based. As for the experimental part:
DNA templates consisting of a T7 RNA Polymerase promoter, the ˜20 nt target-specific sequence, and the chimeric sgRNA scaffold were generated for each desired target by overlapping PCR using Q5 High Fidelity Master Mix (New England Biolabs) under the following conditions: 98° C. for 2 min; 50° C. for 10 min; 72° C. for 10 min. Guide RNA templates were used to transcribe guide RNAs using the HiScribe T7 High Yield RNA Synthesis kit (New England Biolabs) according to the manufacturer's instructions. Following in vitro transcription, guides were purified using Monarch RNA Cleanup Kit (New England Biolabs) following manufacturer's instructions.
The Cas9 RNPs were assembled before transfection using the ArciTect™ Cas9-eGFP Nuclease (StemCell) with the T7 transcribed RNAs at a molar ratio of 1:3 in Buffer T. For each target of interest, the genome was tiled with 3 unique guide RNAs. Before the transfection, primary T cells were preactivated on αCD3/αCD28-precoated plates in complete RPMI medium supplemented with 100 U/mL IL2 for 48 h. The T cells were then washed with PBS and resuspended in Buffer T (10×10^6 cells/mL) and the Cas9 RNP transfections were performed using the Neon Transfection system (ThermoFisher). Following the Cas9 RNP transfection, T cells were cultured in RPMI supplemented with 50 U/mL IL2 for 7 days. […]

In a further test the test system is NuRD complex. Kind of test: Western blot of NuRD complex members in T cells. The settings on record: BPK-25 10 μM. In kind it is cell-based, human. The procedure:
(§1) FIG. 7B is a scatter plot representation of protein abundance changes caused by BPK-25 (10 μM, 24 h) in two independent replicate experiments, with decreases in NuRD complex components highlighted in red. FIG. 7C is a heatmap of top proteins with decreased abundance in BPK-25-treated T cells showing that the subset of these proteins in the NuRD complex (asterisks) were largely unaltered by other active compounds and blocked in their degradation by co-treatment with the proteasome inhibitor MG132. […] FIG. 7E is a bar graph […] showing time-dependent reductions in NuRD complex members in human T cells treated with BPK-25 (10 μM). Left, representative western blots. Right, quantification of changes in protein. […]
BPK-25 (10 μM) treated expanded T cells were washed with PBS before permeabilization by rotation at 4° C. for 10 min with cytoplasm lysis buffer (10 mM sodium phosphate pH 7.4, 25 mM KCl, 1.5 mM MgCl2, 10% glycerol, and 0.025% NP40 supplemented with 1×HALT protease inhibitor cocktail (Thermo Scientific)). […] Insoluble material was precipitated by centrifugation (12,000 g, […]) and the protein concentration of nuclear extracts was measured using standard BCA assay (Thermo Scientific) and normalized. […] Blots were imaged using fluorescence-labeled secondary antibodies (LI-COR) on the Odyssey CLx Imager.

Test [2] deals with NuRD complex members (MBD2, MBD3, GATAD2B). The test is described as follows: Cysteine reactivity profiles of NuRD complex members in treated T cells. In kind it is binding, human. As to conditions: 3 h treatment. The procedure: as §1
At individual TMT experiment level, the following filters were applied to remove low-quality peptides: removal of non-unique peptides; removal of half-tryptic peptides; removal of peptides with more than one internal miscleaved site; removal of peptides with low (<10,000) sum of reporter ion intensities for control channels, and peptides with high variation between the replicate control channels (coefficient of variance >0.5). R values (compound-treated vs. DMSO-treated) for each peptide entry were calculated using the reporter ion intensities of DMSO and compound treated TMT channels for each treatment group with a maximum ratio cap of 20. […]

Turning to `C=CC(=O)N(Cc1cccc(Cl)c1Cl)c1ccc(Oc2ccccc2)c(C(F)(F)F)c1` [BPK-21], the “T cell activation in sgERCC3 cells” value in test [1] (CRISPR/Cas9 disruption of ERCC3) is “only a modest further reduction in activation”. In the case of `O=C(CCl)N1CCN(S(=O)(=O)c2ccc(-c3ccncc3)cc2)CC1` [EV-3], the “T cell activation in BIRC2/BIRC3-null cells” value in test [1] (CRISPR/Cas-9 disruption of BIRC2 and BIRC3) was “further decreased T cell activation”.

Turning to `C=CC(=O)N(Cc1cccc(Cl)n1)c1ccc(C(=O)Nc2ccccc2)nc1` [BPK-25], in the test with NuRD complex, the “time of initial changes in NuRD complex proteins” value is given as 6 h and the “time of maximal effects on NuRD complex proteins” value was 24 h. Besides, the “reduction in C10/11 and C359 in MBD2, C266 in MBD3, and C308 of GATAD2B (cysteine reactivity profiles)” value in test [2] is reported as ~50%.
